Target: T1, Bovine liver catalase (CAT) (Bos taurus, UniProt P00432)
T1 sequence (P00432 2-527): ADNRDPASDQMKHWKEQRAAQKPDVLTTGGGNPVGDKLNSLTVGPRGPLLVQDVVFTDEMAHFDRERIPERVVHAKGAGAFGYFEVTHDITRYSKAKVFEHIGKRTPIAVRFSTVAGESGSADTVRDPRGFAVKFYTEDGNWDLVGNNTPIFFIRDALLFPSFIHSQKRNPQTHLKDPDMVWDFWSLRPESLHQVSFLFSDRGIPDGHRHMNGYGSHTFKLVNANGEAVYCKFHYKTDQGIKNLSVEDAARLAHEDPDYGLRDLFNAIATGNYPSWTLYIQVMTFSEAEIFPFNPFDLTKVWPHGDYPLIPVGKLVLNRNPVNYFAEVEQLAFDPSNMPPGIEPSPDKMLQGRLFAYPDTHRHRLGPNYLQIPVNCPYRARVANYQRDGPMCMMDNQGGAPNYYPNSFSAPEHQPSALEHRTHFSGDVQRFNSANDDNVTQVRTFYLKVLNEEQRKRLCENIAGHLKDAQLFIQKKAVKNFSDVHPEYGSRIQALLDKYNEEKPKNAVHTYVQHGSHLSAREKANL
Test: H2O2 disappearance at […] nm after […] min preincubation with D-Pen
Format: biochemical

- IC50: 191 ± 26 µM
Structure (SMILES): CC(C)(S)[C@@H](N)C(=O)O [D-penicillamine]

Source: article doi:10.1101/2021.09.16.460603v1 (biorxiv, 2021)
